In patent US9133155B2, “Antibacterial agents: high-potency myxopyronin derivatives” (Rutgers, The State University of New Jersey, priority 2010, dated 2015):

Test system: Staphylococcus aureus
Experiment: Antibacterial efficacy in mouse model of Staphylococcus aureus systemic infection (peritonitis model)
Format: in vivo, Swiss Webster mice
Details: total dose 30 mg/kg iv
Description: Female Swiss Webster mice were experimentally infected by intraperitoneal administration of 5×10^7 colony forming units of Staphylococcus aureus in 10% hog gastric mucin. Test compounds (2-3 mg/ml in vehicle [9-19% dimethyacetamide/8-16% Cremophor EL in water, v/v]), positive controls (2 mg/ml vancomycin in vehicle), and negative controls (vehicle only and saline only), were administered by intravenous injection into a tail vein 1 h and 5 h post-infection (200 μl per injection). Survival was monitored for 12 h post-infection, or for 24, 48, and 72 h post-infection. At the end of the monitoring period, surviving animals were euthanized.

[1] = Table 4c, vehicle 9% dimethylacetamide/8% Cremophor EL/83% water

CN[C@H](CC(C)C)C(=O)N[C@H]1C(=O)N[C@@H](CC(N)=O)C(=O)N[C@H]2C(=O)N[C@H]3C(=O)N[C@H](C(=O)N[C@H](C(=O)O)c4cc(O)cc(O)c4-c4cc3ccc4O)[C@H](O)c3ccc(c(Cl)c3)Oc3cc2cc(c3O[C@@H]2O[C@H](CO)[C@@H](O)[C@H](O)[C@H]2O[C@H]2C[C@](C)(N)[C@H](O)[C@H](C)O2)Oc2ccc(cc2Cl)[C@H]1O [vancomycin]
100%: 12-hour survival (Table 4a, 1 h and 5 h post-infection, vehicle 19% dimethylacetamide/8% Cremophor EL/73% water) | 12-hour survival (Table 4b, vehicle 19% dimethylacetamide/16% Cremophor EL/73% water) | 24-hour survival [1] | 48-hour survival [1] | 72-hour survival [1]
